Literature values in patent US20080113949A1, “Use of dipyridamole in combination with acetylsalicylic acid and an angiotensin II antagonist for stroke prevention” (priority 2003, published 2008).

Conditions: clinical study ESPS-2; compared with aspirin

OCCN(CCO)c1nc(N2CCCCC2)c2nc(N(CCO)CCO)nc(N3CCCCC3)c2n1 [dipyridamole, 2,6-bis(diethanolamino)-4,8-dipiperidino-pyrimido[5,4-d]pyrimidine]
reduction of stroke risk: as effective as low-dose aspirin
